Data from PubChem BioAssay (NCI).
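Values below derive from 48-hour exposures of cells grown in 96-well plates, with endpoints linearly interpolated between the two concentrations bracketing the appropriate inhibition level. At the GI50, growth is halved. Definition used: TGI = concentration required for complete inhibition of growth.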

Legend:
Test in all cases: inhibition of tumour cell growth, NCI panel, 48 h
ACHN renal = system: ACHN renal
HCC-2998 colon = system: HCC-2998 colon
HL-60(TB) leukemia = system: HL-60(TB) leukemia
KM20L2 colon = system: KM20L2 colon
OVCAR-4 ovarian = system: OVCAR-4 ovarian
SF-539 CNS = system: SF-539 CNS
SR leukemia = system: SR leukemia
DLD-1 colon = system: DLD-1 colon
HS 578T breast = system: HS 578T breast
MDA-MB-231 breast = system: MDA-MB-231 breast

Q: How did the TGI (ACHN renal) turn out when `CCc1cccc(NC(=O)c2cc(/C=C/c3ccccc3)[nH]c(=S)n2)c1` was run?
A: > 100 µM

Q: And the TGI (HCC-2998 colon)?
A: > 100 µM

Q: And the TGI (HL-60(TB) leukemia)?
A: > 100 µM

Q: And the TGI (KM20L2 colon)?
A: > 100 µM

Q: What about the TGI (OVCAR-4 ovarian) of the same compound?
A: > 100 µM

Q: And the TGI (SF-539 CNS)?
A: > 100 µM

Q: What about the TGI (SR leukemia) of the same compound?
A: > 100 µM

Q: What does the source list for `CCc1ccccc1NC(=O)C(=O)C(C#N)c1c(Cl)cccc1Cl` (configuration not stated)?
A: TGI (ACHN renal): > 100 µM; TGI (DLD-1 colon): > 100 µM; TGI (HL-60(TB) leukemia): > 100 µM; TGI (KM20L2 colon): > 100 µM; TGI (SF-539 CNS): > 100 µM; TGI (SR leukemia): > 100 µM

Q: With `CC(C)(C)OC1=C(OC(C)(C)C)C(O)(c2ccc(Cl)cc2)C1=O` (configuration not stated) as the compound, how does the TGI (ACHN renal) read?
A: > 100 µM

Q: And the TGI (DLD-1 colon)?
A: > 100 µM

Q: What about the TGI (HCC-2998 colon) of the same compound?
A: > 100 µM

Q: What about the TGI (HL-60(TB) leukemia) of the same compound?
A: > 100 µM

Q: And the TGI (OVCAR-4 ovarian)?
A: > 100 µM

Q: And the TGI (SF-539 CNS)?
A: > 100 µM

Q: And the TGI (SR leukemia)?
A: > 100 µM

Q: For `CCOC(=O)CCn1cnc(N)n1`, which TGI (ACHN renal) is on record?
A: > 100 µM

Q: And the TGI (DLD-1 colon)?
A: > 100 µM

Q: What about the TGI (HCC-2998 colon) of the same compound?
A: > 100 µM

Q: What about the TGI (HL-60(TB) leukemia) of the same compound?
A: > 100 µM

Q: And the TGI (KM20L2 colon)?
A: > 100 µM

Q: What about the TGI (OVCAR-4 ovarian) of the same compound?
A: > 100 µM

Q: What about the TGI (SF-539 CNS) of the same compound?
A: > 100 µM

Q: What about the TGI (SR leukemia) of the same compound?
A: > 100 µM

Q: `O=C1CCc2ccc(O)c(c2)Oc2ccc(cc2)[C@@H]2O[C@@H]2CO1` was tested. Which TGI (ACHN renal) did it give?
A: > 100 µM

Q: What about the TGI (DLD-1 colon) of the same compound?
A: > 100 µM

Q: What about the TGI (HCC-2998 colon) of the same compound?
A: > 100 µM

Q: And the TGI (HL-60(TB) leukemia)?
A: > 100 µM

Q: What about the TGI (KM20L2 colon) of the same compound?
A: > 100 µM

Q: What about the TGI (OVCAR-4 ovarian) of the same compound?
A: > 100 µM

Q: What about the TGI (SF-539 CNS) of the same compound?
A: > 100 µM

Q: What about the TGI (SR leukemia) of the same compound?
A: > 100 µM

Q: Which results are given for `N#CC1=C(c2ccccc2)OC2(N)OC(c3ccccc3)=C(C#N)C12C#N` (configuration not stated)?
A: TGI (ACHN renal): > 100 µM; TGI (DLD-1 colon): > 100 µM; TGI (HCC-2998 colon): > 100 µM; TGI (KM20L2 colon): > 100 µM; TGI (OVCAR-4 ovarian): > 100 µM; TGI (SF-539 CNS): > 100 µM

Q: Which results are given for `CC[P+]1(c2ccccc2)CCCCC1`?
A: TGI (ACHN renal): > 100 µM; TGI (DLD-1 colon): > 100 µM; TGI (HCC-2998 colon): > 100 µM; TGI (HL-60(TB) leukemia): > 100 µM; TGI (KM20L2 colon): > 100 µM; TGI (OVCAR-4 ovarian): > 100 µM; TGI (SF-539 CNS): > 100 µM; TGI (SR leukemia): > 100 µM

Q: Which TGI (ACHN renal) does the source give for `Cc1ccc(NC(=O)CCC(=O)C2Cc3ccccc3C2=O)cc1C` (configuration not stated) here?
A: > 100 µM

Q: And the TGI (DLD-1 colon)?
A: > 100 µM

Q: And the TGI (HCC-2998 colon)?
A: > 100 µM

Q: And the TGI (HL-60(TB) leukemia)?
A: > 100 µM

Q: And the TGI (KM20L2 colon)?
A: > 100 µM

Q: And the TGI (OVCAR-4 ovarian)?
A: > 100 µM

Q: And the TGI (SF-539 CNS)?
A: > 100 µM

Q: What about the TGI (SR leukemia) of the same compound?
A: > 100 µM

Q: What does the source list for `NC(=O)c1ncn2c(=O)n(CCCl)nnc12`?
A: GI50 (ACHN renal): > 71.2 µM; TGI (ACHN renal): 385 µM; TGI (DLD-1 colon): 720 µM; TGI (HCC-2998 colon): 366 µM; TGI (HL-60(TB) leukemia): 223 µM; TGI (HS 578T breast): 695 µM; TGI (KM20L2 colon): 319 µM; TGI (MDA-MB-231 breast): 584 µM; GI50 (OVCAR-4 ovarian): > 69.4 µM; TGI (OVCAR-4 ovarian): 437 µM; TGI (SF-539 CNS): 164 µM; GI50 (SR leukemia): 57.9 µM; TGI (SR leukemia): 801 µM

Q: Which TGI (ACHN renal) does the source give for `CSc1cc(C(C)(C)C)ccc1C(O)c1ccc(C(C)(C)C)cc1SC` here?
A: 23.6 µM

Q: And the TGI (DLD-1 colon)?
A: 21.7 µM

Q: What about the TGI (HCC-2998 colon) of the same compound?
A: 32.1 µM

Q: What about the TGI (HL-60(TB) leukemia) of the same compound?
A: 21.2 µM

Q: And the TGI (KM20L2 colon)?
A: 23.8 µM

Q: What about the TGI (OVCAR-4 ovarian) of the same compound?
A: 22.9 µM

Q: And the TGI (SF-539 CNS)?
A: 32.3 µM

Q: And the TGI (SR leukemia)?
A: 32.2 µM

Q: How did the GI50 (ACHN renal) turn out when `CC(=O)[CH-]C(=O)c1ccccc1.CC(=O)[CH-]C(=O)c1ccccc1.CC(=O)[CH-]C(=O)c1ccccc1.[Br-].[Zr+4]` was run?
A: 54.3 µM

Q: What about the TGI (ACHN renal) of the same compound?
A: > 100 µM

Q: What about the GI50 (DLD-1 colon) of the same compound?
A: 28.1 µM

Q: And the TGI (DLD-1 colon)?
A: > 100 µM

Q: What about the GI50 (HL-60(TB) leukemia) of the same compound?
A: 52.7 µM

Q: And the TGI (HL-60(TB) leukemia)?
A: > 100 µM

Q: And the GI50 (KM20L2 colon)?
A: 51.6 µM

Q: And the TGI (KM20L2 colon)?
A: > 100 µM

Q: What about the GI50 (OVCAR-4 ovarian) of the same compound?
A: 82.1 µM

Q: What about the TGI (OVCAR-4 ovarian) of the same compound?
A: > 100 µM

Q: For `O=C1c2ccccc2C(=O)c2sc(Nc3ccc([N+](=O)[O-])cc3)nc21`, which TGI (ACHN renal) is on record?
A: 7.55 µM

Q: And the TGI (DLD-1 colon)?
A: 11.5 µM

Q: And the TGI (HCC-2998 colon)?
A: 30.1 µM

Q: What about the TGI (HL-60(TB) leukemia) of the same compound?
A: 2.52 µM

Q: And the TGI (HS 578T breast)?
A: 22.2 µM

Q: And the TGI (KM20L2 colon)?
A: 45.6 µM

Q: What about the TGI (MDA-MB-231 breast) of the same compound?
A: 6.39 µM

Q: And the TGI (OVCAR-4 ovarian)?
A: 11 µM

Q: What about the TGI (SF-539 CNS) of the same compound?
A: 15.3 µM

Q: And the TGI (SR leukemia)?
A: 7.97 µM

Q: `N#CCC(=O)Nc1ccccc1O` was tested. Which TGI (ACHN renal) did it give?
A: > 100 µM

Q: And the TGI (DLD-1 colon)?
A: > 100 µM

Q: What about the TGI (HCC-2998 colon) of the same compound?
A: > 100 µM

Q: What about the TGI (HL-60(TB) leukemia) of the same compound?
A: > 100 µM

Q: What about the TGI (KM20L2 colon) of the same compound?
A: > 100 µM

Q: What about the TGI (OVCAR-4 ovarian) of the same compound?
A: > 100 µM

Q: What about the TGI (SF-539 CNS) of the same compound?
A: > 100 µM

Q: What about the TGI (SR leukemia) of the same compound?
A: > 100 µM

Q: Which results are given for `N#CC(C#N)=C1CCC2C(=C(C#N)C#N)CCC12` (configuration not stated)?
A: TGI (DLD-1 colon): > 100 µM; TGI (HCC-2998 colon): > 100 µM; TGI (HL-60(TB) leukemia): > 100 µM; TGI (KM20L2 colon): > 100 µM; TGI (OVCAR-4 ovarian): > 100 µM; TGI (SF-539 CNS): > 100 µM; TGI (SR leukemia): > 100 µM

Q: For `FC(F)(F)c1nc(Br)[nH]c1C(F)(F)F`, which TGI (ACHN renal) is on record?
A: > 100 µM

Q: And the TGI (DLD-1 colon)?
A: > 100 µM

Q: And the TGI (HCC-2998 colon)?
A: > 100 µM

Q: And the TGI (HL-60(TB) leukemia)?
A: > 100 µM

Q: And the TGI (KM20L2 colon)?
A: > 100 µM

Q: And the TGI (OVCAR-4 ovarian)?
A: > 100 µM

Q: What about the TGI (SF-539 CNS) of the same compound?
A: > 100 µM

Q: What about the TGI (SR leukemia) of the same compound?
A: > 100 µM
